The target in this assay is T1, hDGAT1 (Homo sapiens, UniProt O75907).
T1 construct: made in house; host or cells: Sf9 insect cells (baculovirus); microsomal fraction
T1 sequence (O75907 1-488): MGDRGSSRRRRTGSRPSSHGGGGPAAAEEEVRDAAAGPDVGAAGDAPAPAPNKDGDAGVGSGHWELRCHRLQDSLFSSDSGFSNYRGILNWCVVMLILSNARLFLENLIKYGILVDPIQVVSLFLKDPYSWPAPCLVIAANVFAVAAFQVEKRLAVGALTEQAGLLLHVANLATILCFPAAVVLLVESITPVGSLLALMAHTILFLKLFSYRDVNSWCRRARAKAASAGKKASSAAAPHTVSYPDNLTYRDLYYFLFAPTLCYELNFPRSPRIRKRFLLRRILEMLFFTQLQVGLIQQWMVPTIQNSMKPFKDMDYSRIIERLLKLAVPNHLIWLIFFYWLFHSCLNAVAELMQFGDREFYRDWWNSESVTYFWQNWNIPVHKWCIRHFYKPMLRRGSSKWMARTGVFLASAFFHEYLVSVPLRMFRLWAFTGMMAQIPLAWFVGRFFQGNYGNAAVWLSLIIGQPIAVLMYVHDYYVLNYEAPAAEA
In words: In-vitro DGAT1 assay with hDGAT1 microsomes from Sf9 cells (14C oleoyl CoA, scintillation counting). Type of assay: biochemical. To be noted: for inhibition at 1 µM: read-out: Percentage inhibition of hDGAT1. The method, boiled down:
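Microsomes from Sf9 cells infected with hDGAT1 baculovirus (MOI 5, harvested ~66-72 h) were incubated with [14C]oleoyl-CoA and 1,2-dioleoyl-sn-glycerol at 37 °C for 10 min, in duplicate. After alkaline ethanol stop, triglycerides were heptane-extracted and counted by liquid scintillation; percent inhibition was plotted against compound concentration (nM).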

Where a name gives a salt, the structure may show the parent alone.

The inhibition is how much of the control response was suppressed. Take `O=C(O)CN1CCC(c2ncc(-c3ccc(NC(=O)Nc4ccc(F)cc4F)cc3)s2)CC1` [Example 433, 2-(4-(5-(4-(3-(2,4-Difluorophenyl)ureido)phenyl)thiazol-2-yl)piperidin-1-yl)acetic acid]: the inhibition at 1 µM was more than 50%. On the same count and under the same terms, under `O=C(O)CN1CCC(c2ncc(-c3ccc(NC(=O)Nc4cc(F)c(F)cc4F)cc3)s2)CC1` [Example 435, 2-(4-(5-(4-(3-(2,4,5-Trifluorophenyl)ureido)phenyl)thiazol-2-yl)piperidin-1-yl)acetic acid] stands more than 50%; under `O=C(O)CN1CCC(c2ncc(-c3ccc(NC(=O)Nc4ccccc4C(F)(F)F)cc3)s2)CC1` [Example 437, 2-(4-(5-(4-(3-(2-(Trifluoromethyl)phenyl)ureido)phenyl)thiazol-2-yl)piperidin-1-yl)acetic acid], more than 50%. On to `O=C(O)CN1CCC(c2ncc(-c3ccc(NC(=O)Nc4ccc(F)c(F)c4F)cc3)s2)CC1` [Example 439, 2-(4-(5-(4-(3-(2,3,4-Trifluorophenyl)ureido)phenyl)thiazol-2-yl)piperidin-1-yl)acetic acid], for which the inhibition at 1 µM lay within 20 to 50%. Turning to `CC(C(=O)O)N1CCC(c2ncc(-c3ccc(NC(=O)Nc4cc(F)c(F)cc4F)cc3)s2)CC1` (stereo not shown) [Example 451, 2-(4-(5-(4-(3-(2,4,5-Trifluorophenyl)ureido)phenyl)thiazol-2-yl)piperidin-1-yl)propanoic acid], the inhibition at 1 µM is more than 50%. The same measure, in the same setting: for `CC(C(=O)O)N1CCC(c2ncc(-c3ccc(NC(=O)Nc4ccccc4F)cc3)s2)CC1` (stereo not shown) [Example 453, 2-(4-(5-(4-(3-(2-Fluorophenyl)ureido)phenyl)thiazol-2-yl)piperidin-1-yl) propanoic acid] the value was more than 50%; for `CC(C(=O)O)N1CCC(c2ncc(-c3ccc(NC(=O)Nc4ccccc4Cl)cc3)s2)CC1` (stereo not shown) [Example 455, 2-(4-(5-(4-(3-(2-Chlorophenyl)ureido)phenyl)thiazol-2-yl)piperidin-1-yl)propanoic acid], more than 50%; for `CC(C(=O)O)N1CCC(c2ncc(-c3ccc(NC(=O)Nc4c(F)cc(F)cc4F)cc3)s2)CC1` (stereo not shown) [Example 459, 2-(4-(5-(4-(3-(2,4,6-Trifluorophenyl)ureido)phenyl)thiazol-2-yl)piperidin-1-yl)propanoic acid], more than 50%. The same measure, in the same setting: under `O=C(Nc1ccc(-c2cnc(C3CCNCC3)s2)cc1)Nc1ccccc1Cl` [Example 474, 1-(2-Chlorophenyl)-3-(4-(2-(piperidin-4-yl)thiazol-5-yl)phenyl)urea hydrochloride] stands 20 to 50%.

Regarding `CC(C)(C)OC(=O)N1CCC(c2ncc(-c3ccc(NC(=O)Nc4ccccc4F)cc3)s2)CC1` [Example 475, t-Butyl 4-(5-(4-(3-(2-fluorophenyl)ureido)phenyl)thiazol-2-yl)piperidine-1-carboxylate], the inhibition at 1 µM was in the range of 20 to 50%. Same read-out and setting: for `O=C(Nc1ccc(-c2cnc(C3CCNCC3)s2)cc1)Nc1ccccc1F` [Example 476, 1-(2-Fluorophenyl)-3-(4-(2-(piperidin-4-yl)thiazol-5-yl)phenyl)urea hydrochloride] the value was 20 to 50%; for `CC(C)(C)OC(=O)N1CCC(c2ncc(-c3ccc(NC(=O)Nc4ccc(F)cc4F)cc3)s2)CC1` [Example 477, t-Butyl 4-(5-(4-(3-(2,4-difluorophenyl)ureido)phenyl)thiazol-2-yl)piperidine-1-carboxylate], 20 to 50%. Regarding `O=C(Nc1ccc(-c2cnc(C3CCNCC3)s2)cc1)Nc1ccc(F)cc1F` [Example 478, 1-(2,4-Difluorophenyl)-3-(4-(2-(piperidin-4-yl)thiazol-5-yl)phenyl)urea hydrochloride], the inhibition at 1 µM fell in the range of 20 to 50%. With `CC(C)(C)OC(=O)N1CCC(c2ncc(-c3ccc(NC(=O)Nc4c(F)cc(F)cc4F)cc3)s2)CC1` [Example 479, t-Butyl 4-(5-(4-(3-(2,4,6-trifluorophenyl)ureido)phenyl)thiazol-2-yl)piperidine-1-carboxylate], the inhibition at 1 µM lay in the range of 20 to 50%. Still for that read-out and setting: for `O=C(Nc1ccc(-c2cnc(C3CCNCC3)s2)cc1)Nc1cc(F)c(F)cc1F` [Example 480, 1-(4-(2-(Piperidin-4-yl)thiazol-5-yl)phenyl)-3-(2,4,5-trifluorophenyl)urea hydrochloride] the value was 20 to 50%; for `O=C(Nc1ccc(-c2cnc(C3CCN(S(=O)(=O)C(F)(F)F)CC3)s2)cc1)Nc1ccccc1F` [Example 483, 1-(2-Fluorophenyl)-3-(4-(2-(1-((trifluoromethyl)sulfonyl)piperidin-4-yl)thiazol-5-yl)phenyl)urea], 20 to 50%. The same measure, in the same setting: under `O=C(Nc1ccc(-c2cnc(C3CCN(S(=O)(=O)C(F)(F)F)CC3)s2)cc1)Nc1ccccc1Cl` [Example 484, 1-(2-Chlorophenyl)-3-(4-(2-(1-((trifluoromethyl)sulfonyl)piperidin-4-yl)thiazol-5-yl)phenyl)urea] stands 20 to 50%; under `O=C(Nc1ccc(-c2cnc(C3CCN(S(=O)(=O)C(F)(F)F)CC3)s2)cc1)Nc1ccc(F)cc1F` [Example 485, 1-(2,4-Difluorophenyl)-3-(4-(2-(1-((trifluoromethyl)sulfonyl)piperidin-4-yl)thiazol-5-yl)phenyl)urea], 20 to 50%. Regarding `O=C(Nc1ccc(-c2cnc(C3CCN(S(=O)(=O)C(F)(F)F)CC3)s2)cc1)Nc1c(F)cc(F)cc1F` [Example 486, 1-(4-(2-(1-((Trifluoromethyl)sulfonyl)piperidin-4-yl)thiazol-5-yl)phenyl)-3-(2,4,6-trifluorophenyl)urea], the inhibition at 1 µM was 20 to 50%. Still for that read-out and setting: for `O=C(Nc1ccc(-c2cnc(C3CCN(S(=O)(=O)C(F)(F)F)CC3)s2)cc1)Nc1cc(F)c(F)cc1F` [Example 487, 1-(4-(2-(1-((Trifluoromethyl)sulfonyl)piperidin-4-yl)thiazol-5-yl)phenyl)-3-(2,4,5-trifluorophenyl)urea] the value was 20 to 50%. Same read-out and setting: under `CS(=O)(=O)N1CCC(c2ncc(-c3ccc(NC(=O)Nc4ccccc4Cl)cc3)s2)CC1` [Example 490, 1-(2-Chlorophenyl)-3-(4-(2-(1-(methylsulfonyl)piperidin-4-yl)thiazol-5-yl)phenyl)urea] stands 20 to 50%; under `CS(=O)(=O)N1CCC(c2ncc(-c3ccc(NC(=O)Nc4ccccc4F)cc3)s2)CC1` [Example 491, 1-(2-Fluorophenyl)-3-(4-(2-(1-(methylsulfonyl)piperidin-4-yl)thiazol-5-yl)phenyl)urea], 20 to 50%; under `CS(=O)(=O)N1CCC(c2ncc(-c3ccc(NC(=O)Nc4c(F)cc(F)cc4F)cc3)s2)CC1` [Example 493, 1-(4-(2-(1-(Methylsulfonyl)piperidin-4-yl)thiazol-5-yl)phenyl)-3-(2,4,6-trifluorophenyl)urea], 20 to 50%. Take `CS(=O)(=O)N1CCC(c2ncc(-c3ccc(NC(=O)Nc4cc(F)c(F)cc4F)cc3)s2)CC1` [Example 494, 1-(4-(2-(1-(Methylsulfonyl)piperidin-4-yl)thiazol-5-yl)phenyl)-3-(2,4,5-trifluorophenyl)urea]: the inhibition at 1 µM is more than 50%. On the same count and under the same terms, for `O=C(Nc1ccc(-c2cnc(C34CC5CC(CC(C(=O)O)(C5)C3)C4)s2)cc1)Nc1ccccc1F` [Example 502, 3-(5-(4-(3-(2-Fluorophenyl)ureido)phenyl)thiazol-2-yl)adamantane-1-carboxylic acid] the value was more than 50%; for `O=C(Nc1ccc(-c2cnc(C34CC5CC(CC(C(=O)O)(C5)C3)C4)s2)cc1)Nc1c(F)cccc1F` [Example 506, 3-(5-(4-(3-(2,6-Difluorophenyl)ureido)phenyl)thiazol-2-yl)adamantane-1-carboxylic acid], more than 50%; for `O=C(Nc1ccc(-c2cnc(C34CC5CC(CC(C(=O)O)(C5)C3)C4)s2)cc1)Nc1cc(F)c(F)cc1F` [Example 508, 3-(5-(4-(3-(2,4,5-Trifluorophenyl)ureido)phenyl)thiazol-2-yl)adamantane-1-carboxylic acid], more than 50%. The same measure, in the same setting: under `O=C(Nc1ccc(-c2cnc(C34CC5CC(CC(C(=O)O)(C5)C3)C4)s2)cc1)Nc1ccc(F)c(F)c1F` [Example 510, 3-(5-(4-(3-(2,3,4-Trifluorophenyl)ureido)phenyl)thiazol-2-yl)adamantane-1-carboxylic acid] stands more than 50%. The same measure, in the same setting: under `O=C(Nc1ccc(-c2cnc(C34CC5CC(CC(C(=O)O)(C5)C3)C4)s2)cc1)Nc1cc(F)cc(F)c1` [Example 512, 3-(5-(4-(3-(3,5-Difluorophenyl)ureido)phenyl)thiazol-2-yl)adamantane-1-carboxylic acid] stands more than 50%.

Turning to `O=C(Nc1ccc(-c2cnc(C34CC5CC(CC(C(=O)O)(C5)C3)C4)s2)cc1)Nc1cccc(C(F)(F)F)c1` [Example 514, 3-(5-(4-(3-(3-(Trifluoromethyl)phenyl)ureido)phenyl)thiazol-2-yl)adamantane-1-carboxylic acid], the inhibition at 1 µM was more than 50%. With `O=C(Nc1ccc(-c2cnc(CCNS(=O)(=O)C(F)(F)F)s2)cc1)Nc1ccc(C(F)(F)F)cc1` [Example 526], the “Percentage inhibition of hDGAT1” value (at 1 μM) is “++ (>50 % Inhibition)”.

The record behind these values is patent US20130158075A1, “HETEROCYCLIC COMPOUNDS AS DGAT1 INHIBITORS” (PIRAMAL ENTERPRISES LIMITED, priority 2010, published 2013).
